According to patent US7244583B2, “Device for detecting bacterial contamination and method of use” (priority 2000, dated 2007):
*: point of attachment. DABSYL = CN(C)c1ccc(/N=N/c2ccc(S(=O)(=O)*)cc2)cc1; EDANS = O=S(=O)(O)c1cccc2c(NCCN*)cccc12

Columns and labels:
E. coli = assay: FRET peptide substrate cleavage/detection with E. coli; assay type: biochemical; settings: FRET peptide probe
mpl = assay: FRET analysis of mpl activity with DABCYL/EDANS-labeled peptide substrates (Listeria); assay type: biochemical, Listeria monocytogenes; settings: FRET peptide probe
Excerpt: The presence of L. monocytogenes contamination is detected by measuring the metalloprotease (mpl), which is found only in the pathogenic species of L. monocytogenes (Domann et al., infection and Immunity. 1991. January; 59(1):65-72; Mengaud et al., 1991). A series of peptides, M1 (lot 038-13/15) and P1 (lot 038-10/12), for use as synthetic substrates for mpl (Table 1) was designed and the sequences manufactured by New England Peptide (195 Kimball St., Fitchburg, Mass.). The peptides were synthesized with fluorescent groups (DABCYL and EDANS) in such a way that the active sites were not blocked. The M1 peptide is specific for L. monocytogenes at pH 5.5.
Fluorescence resonance energy transfer (FRET) is the process of a distance dependent excited state interaction in which the emission of one fluorescent molecule is coupled to the excitation of another. […] The cleavage reaction can be followed by observing either a decrease in DABCYL fluorescence or an increase in EDANS fluorescence (loss of quenching).
Determine the peptide sequence for the active site of the protease using fluorescence resonance energy transfer (FRET). Fluorescence resonance energy transfer (FRET) is the process of a distance dependent excited state interaction in which the emission of one fluorescent molecule is coupled to the excitation of another. […]

Row | Substance | Description: cleavage by E. coli (E. coli) | Description: cleavage by Listeria (mpl) | detection of the presence of E. coli by the peptide (E. coli; pH 5.5) | Description: specificity of peptide substrate for Listeria (L. monocytogenes) (mpl; pH 5.5)
1 | DABSYL-ADTVEPTGAKE-EDANS ({DABSYL}-ADTVEPTGAKE-{EDANS}; SMILES CC(C)[C@H](NC(=O)[C@@H](NC(=O)[C@H](CC(=O)O)NC(=O)[C@H](C)NS(=O)(=O)c1ccc(/N=N/c2ccc(N(C)C)cc2)cc1)[C@@H](C)O)C(=O)N[C@@H](CCC(=O)O)C(=O)N1CCC[C@H]1C(=O)N[C@H](C(=O)NCC(=O)N[C@@H](C)C(=O)N[C@@H](CCCCN)C(=O)N[C@@H](CCC(=O)O)C(=O)NCCNc1cccc2c(S(=O)(=O)O)cccc12)[C@@H](C)O) [Peptide P2, FRET-labeled synthetic peptide probe] | Not cleaved | Not cleaved | – | –
2 | DABSYL-NML, SEVERE-EDANS ({DABSYL}-NMLSEVERE-{EDANS}; SMILES CSCC[C@H](NC(=O)[C@H](CC(N)=O)NS(=O)(=O)c1ccc(/N=N/c2ccc(N(C)C)cc2)cc1)C(=O)N[C@@H](CC(C)C)C(=O)N[C@@H](CO)C(=O)N[C@@H](CCC(=O)O)C(=O)N[C@H](C(=O)N[C@@H](CCC(=O)O)C(=O)N[C@@H](CCCNC(=N)N)C(=O)N[C@@H](CCC(=O)O)C(=O)NCCNc1cccc2c(S(=O)(=O)O)cccc12)C(C)C) [Peptide M1, FRET-labeled synthetic peptide substrate for mpl of L. monocytogenes (lot 038-13/15)] | – | – | does not significantly detect | Specific to
